Results published in PubChem BioAssay (NCI).
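Following 48 hours of exposure in 96-well plates, responses at five concentrations were used to interpolate endpoints linearly. Abbreviation: GI50, concentration required for 50% inhibition of growth. TGI marks complete inhibition of growth.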

Columns and labels:
Assay in all cases: inhibition of tumour cell growth, NCI panel, 48 h
[1] = test system: HOP-62 NSCLC
[2] = test system: RPMI-8226 leukemia
[3] = test system: HS 578T breast
[4] = test system: SW-620 colon
[5] = test system: BT-549 breast
[6] = test system: K-562 leukemia
[7] = test system: HCC-2998 colon
[8] = test system: ACHN renal
[9] = test system: 786-0 renal

Row | Structure (SMILES) | GI50 [1] [µM] | TGI [1] [µM] | GI50 [2] [µM] | TGI [2] [µM] | GI50 [3] [µM] | TGI [3] [µM] | GI50 [4] [µM] | TGI [4] [µM] | GI50 [5] [µM] | TGI [5] [µM] | GI50 [6] [µM] | TGI [6] [µM] | GI50 [7] [µM] | TGI [7] [µM] | GI50 [8] [µM] | TGI [8] [µM] | TGI [9] [µM]
1 | O=C1/C(=C/c2ccc(O)cc2)COc2ccc(O)c(O)c21 | 3.98 | > 100 | 0.499 | 3.68 | 3.12 | > 100 | 2.11 | 5.36 | 1.97 | 7.69 | 0.649 | > 100 | 3.61 | 13.1 | 1.99 | 4.72 | –
2 | Cc1cc2nc3c(C#N)c4c(c(-c5ccc(Cl)cc5)n3c2cc1C)CCC4 | – | 46.2 | – | 74.4 | – | 47.9 | – | > 100 | – | 41.8 | – | 53.6 | – | – | – | 59.5 | 35
3 | CC(=O)OC1[C@H](OC(C)=O)C2=C(C)[C@@H](OC(C)=O)C[C@@]2(C(C)(C)O)[C@@H](OC(C)=O)[C@H]2[C@@]1(C)[C@@H](OC(C)=O)CC(OC(C)=O)[C@]21CO1 (stereo not given in full) | – | > 100 | – | > 100 | – | > 100 | – | > 100 | – | – | – | > 100 | – | – | – | > 100 | > 100
4 | CC1OC2OC3C(OCC(O)C3O)OC(=O)[C@]34CCC(C)(C)CC3C3=CCC5[C@@]6(C)C[C@H](O)[C@H](OC7OC(CO)C(O)C(O)C7OC7OCC(OC(=O)CC(C)(O)CC(=O)OC1C(O)C2O)C(O)C7O)[C@@](C)(CO)C6CC[C@@]5(C)[C@]3(C)CC4 (stereo not given in full) | – | 6.8 | – | 17.7 | – | 21.2 | – | 19 | – | 24.8 | – | – | – | 5.12 | – | 18.3 | 25.6
5 | COC1C(N(C)C)=C(c2ccccc2)C(=O)N2CCc3ccccc3C12 (stereo not given) | – | > 100 | – | – | – | > 100 | – | > 100 | – | – | – | – | – | – | – | > 100 | > 100
6 | Cc1cccc(N2C(=O)C3c4[nH]c5ccc(C)cc5c4C4CCC(C(C)(C)C)CC4C3C2=O)c1 (stereo not given) | – | 30.9 | – | 41.1 | – | – | – | 59.6 | – | > 100 | – | > 100 | – | – | – | – | –
7 | CNc1ncnc2c1nc(NC1CCCC1)n2C1OC(CO)C(O)C1O (stereo not given) | – | > 100 | – | – | – | – | – | > 100 | – | – | – | – | – | > 100 | – | > 100 | > 100
8 | COC(=O)Nc1nc2ccc(S(=O)(=O)N3CCOCC3)cc2[nH]1 | – | > 100 | – | > 100 | – | > 100 | – | > 100 | – | > 100 | – | > 100 | – | – | – | > 100 | > 100
9 | COc1ccc(C2C(=O)c3c(OC)cc(OC)cc3OC2c2cccnc2)cc1 (stereo not given) | – | > 100 | – | – | – | > 100 | – | > 100 | – | – | – | > 100 | – | > 100 | – | > 100 | > 100
10 | C/C(=N\Nc1nc2ccccc2s1)c1cc2ccccc2cn1 | – | 41.7 | – | > 100 | – | – | – | > 100 | – | 45.8 | – | – | – | 27.2 | – | > 100 | 9.35
11 | CC1=CP(=O)(c2c(C(C)C)cc(C(C)C)cc2C(C)C)CCC1Cl (stereo not given) | – | 33.9 | – | 40.9 | – | > 100 | – | 69.9 | – | 33.4 | – | 35.6 | – | – | – | 31.5 | 36.7
12 | COc1nc2ccc(COc3ccc(C(=O)O)cc3)cc2nc1OC | – | > 100 | – | – | – | – | – | > 100 | – | – | – | > 100 | – | > 100 | – | > 100 | > 100
